Results reported in ChEMBL document CHEMBL4622888, “Modified Fusicoccane-Type Diterpenoids from Alternaria brassicicola” (J Nat Prod, 2020).

Assays:
[1] = system: OVCAR; assay: Cytotoxicity against human OVCAR cells after 48 hrs by MTT assay; assay type: functional, cell-based
[2] = system: L02; assay: Cytotoxicity against human LO2 cells after 48 hrs by MTT assay; assay type: cell-based; settings: l02, 48 h
[3] = system: Hep 3B2; assay: Cytotoxicity against human Hep3B cells after 48 hrs by MTT assay; assay type: functional, cell-based
[4] = system: HeLa; assay: Cytotoxicity against human HeLa cells after 48 hrs by MTT assay; assay type: functional, cell-based
[5] = system: HT-29; assay: Cytotoxicity against human HT-29 cells after 48 hrs by MTT assay; assay type: functional, cell-based; settings: HT-29, 48 h
[6] = system: MDA-MB-231; assay: Cytotoxicity against human MDA-MB-231 cells after 48 hrs by MTT assay; assay type: functional, cell-based; settings: MDA-MB-231, 48 h
[7] = system: RAW264.7; assay: Antiinflammatory activity in mouse RAW264.7 cells assessed as inhibition of LPS-induced NO production measured after 18 hrs by Griess assay; assay type: functional, cell-based; settings: RAW264.7, 18 h

Structure (SMILES) | IC50 [7] [µM] | IC50 [1] [µM] | Activity [2] | IC50 [3] [µM] | IC50 [4] [µM] | IC50 [5] [µM] | IC50 [6] [µM]
CC(C)C1=C2C[C@H](O)[C@H](C)[C@@H]3CCC(=O)/C3=C/[C@@]2(C)[C@@H](O)C1 | > 40 | 25 to 38.2 | Non-Toxic | 25 to 38.2 | 25 to 38.2 | 25 to 38.2 | 25 to 38.2
CC(C)C1=C2C[C@H](O)[C@H](C)C3=C(C(=O)CC3)[C@H](O)[C@@]2(C)CC1 | > 40 |  |  |  |  |  | 
CC(C)C1=C2C[C@@H]3O[C@@H]([C@H]4C(=O)CC[C@H]4[C@H]3C)[C@@]2(C)[C@@H](O)C1 | > 40 | 25 to 38.2 | Non-Toxic | 25 to 38.2 | 25 to 38.2 | 25 to 38.2 | 25 to 38.2
COC[C@@]1(O)CC[C@H]2[C@@H](C)[C@@H](O)CC3=C(C(C)C)CC[C@]3(C)[C@H]3O[C@@]231 | > 40 | 25 to 38.2 | Non-Toxic | 25 to 38.2 | 25 to 38.2 | 25 to 38.2 | 25 to 38.2

More lines, main results first:

IC50 [7] [µM] | Structure (SMILES) | IC50 [1] [µM] | Activity [2] | IC50 [3] [µM] | IC50 [4] [µM] | IC50 [5] [µM] | IC50 [6] [µM]
24.3 | COCC1=C2[C@@H](CC1)[C@@H](C)[C@@H](O)CC1=C(C(C)C)CC[C@]1(C)[C@H]2O | 25 to 38.2 | Non-Toxic | 25 to 38.2 | 25 to 38.2 | 25 to 38.2 | 25 to 38.2
> 40 | COCC1=C2[C@@H](CC1)[C@@H](C)[C@@H](O)CC1=C(C(C)C)C(=O)C[C@]1(C)[C@H]2O |  |  |  |  |  | 
> 40 | COCC1=C2C[C@@]3(C)C(=O)C=C(C(C)C)[C@]34C[C@H](O)[C@H](C)[C@@]2(CC1)O4 |  |  |  |  |  | 
